Drawing on article PMC7105311, “Structure and function of Bs164 β-mannosidase from Bacteroides salyersiae the founding member of glycoside hydrolase family GH164” (The Journal of Biological Chemistry, 2019), this text covers Ki for two compounds.

Broadly, the Ki is a measure of affinity in units of concentration, obtained from inhibition or displacement. The low end stands for higher affinity, the high end for lower affinity.

Read-outs that look alike come from different tables or passages of the source.

In the experiment the target is T1, Bs164 (Bacteroides salyersiae, UniProt I9SUA3).
T1 construct: gene HMPREF1071_03408; tag cut by 3C protease for kinetics, His6-tagged for crystals
T1 sequence (I9SUA3 22-673): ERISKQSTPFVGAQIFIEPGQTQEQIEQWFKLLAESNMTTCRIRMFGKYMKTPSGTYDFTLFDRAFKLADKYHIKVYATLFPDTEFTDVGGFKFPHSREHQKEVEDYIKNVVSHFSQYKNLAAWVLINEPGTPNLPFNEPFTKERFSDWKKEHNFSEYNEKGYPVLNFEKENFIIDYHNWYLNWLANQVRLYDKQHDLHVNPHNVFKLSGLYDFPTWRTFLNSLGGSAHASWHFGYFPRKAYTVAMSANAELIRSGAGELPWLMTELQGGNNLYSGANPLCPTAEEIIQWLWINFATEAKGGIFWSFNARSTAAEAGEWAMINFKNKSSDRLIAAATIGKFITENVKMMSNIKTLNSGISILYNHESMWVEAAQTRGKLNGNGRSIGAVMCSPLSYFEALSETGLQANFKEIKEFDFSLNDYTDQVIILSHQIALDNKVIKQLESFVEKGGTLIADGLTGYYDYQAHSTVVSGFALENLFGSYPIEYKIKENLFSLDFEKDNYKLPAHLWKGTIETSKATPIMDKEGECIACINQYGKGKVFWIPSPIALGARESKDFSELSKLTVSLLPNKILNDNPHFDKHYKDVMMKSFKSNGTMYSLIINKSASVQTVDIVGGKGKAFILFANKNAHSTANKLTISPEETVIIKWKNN
Nature of the experiment: inhibition of pNP β-Man hydrolysis, absorbance, competitive model fit. The class given is biochemical. From the text: inhibition of pNP β-Man hydrolysis, absorbance, competitive model fit on Bs164 | Mannoimidazole and noeuromycin act as competitive inhibitors of Bs164 with inhibition constants (Ki)

On to `OC[C@@H]1[C@@H](O)[C@H](O)[C@H](O)c2nccn21` [mannoimidazole], for which the affinity corresponds to a Ki of 470 ± 60 µM.

`OC[C@H]1CN[C@@H](O)[C@@H](O)[C@@H]1O` [noeuromycin] returned a Ki (competitive, substrate pNP β-Man, 80 mM MES pH 5.5, 160 mM NaCl, 25 °C, crystal structure 2.06 Å, -1 subsite) of 0.34 ± 0.04 µM.
